Source: paper PMC9437101, “Curcumin-based-fluorescent probes targeting ALDH1A3 as a promising tool for glioblastoma precision surgery and early diagnosis” (Communications Biology, 2022)
Where “and” joins values, the source holds several entries; their conditions need not be identical. Equal entries are not always repeated.

What was measured:
[1] = target: T1, ALDH1A1 (Homo sapiens, UniProt P00352); assay: Kd evaluation by fluorescence emission assay; format: binding; details: probe 10 μM, ALDH1A1 100 to 1.1719 μM
T1 construct: E. coli BL21 (DE3) were transformed with the full-length expression vector of each isoform; His-tag; made in house; host or cells: E. coli BL21 (DE3)
T1 sequence (P00352 1-501): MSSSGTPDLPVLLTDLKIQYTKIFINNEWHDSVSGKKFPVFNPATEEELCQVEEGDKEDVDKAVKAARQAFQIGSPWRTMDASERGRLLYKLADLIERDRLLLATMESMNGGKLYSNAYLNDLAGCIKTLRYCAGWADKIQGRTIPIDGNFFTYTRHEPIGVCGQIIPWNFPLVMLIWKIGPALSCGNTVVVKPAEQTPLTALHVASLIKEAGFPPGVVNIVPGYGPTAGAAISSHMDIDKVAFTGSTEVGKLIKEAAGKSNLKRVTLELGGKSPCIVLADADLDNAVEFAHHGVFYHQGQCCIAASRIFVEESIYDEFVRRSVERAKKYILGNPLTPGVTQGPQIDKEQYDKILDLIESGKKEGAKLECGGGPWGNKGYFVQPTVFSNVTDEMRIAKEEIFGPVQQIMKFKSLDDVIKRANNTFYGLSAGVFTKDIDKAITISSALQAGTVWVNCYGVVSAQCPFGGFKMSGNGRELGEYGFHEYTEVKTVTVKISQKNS
Protocol: (§1) To evaluate the Kd constant between the two probes and the isoenzymes ALDH1A1, ALDH1A2 and ALDH1A3A we performed a fluorescence emission assay. We used a Tecan Spark with Greiner Bio-One 96-UV-Transparent Microplates. A single reaction was performed in a total volume of 100 μl per well containing 20 mM Tris HCl pH 8.0, 1 mM β-mercaptoethanol, 150 mM KCl, 500 μM NAD^+ and 10 μM fluorescent probe with a 5% DMSO final concentration, in the presence of different ALDH1As concentrations, from 100 μM to 1.1719 μM. Each reaction mix was preincubated for 10 min at 25 °C before the analysis. The obtained raw data were analyzed using GraphPad to calculate Kd values.

[2] = target: T2, ALDH1A3 (Homo sapiens, UniProt P47895); assay: Kd evaluation by fluorescence emission assay; format: binding; details: probe 10 μM, ALDH1A3 100 to 1.1719 μM
T2 construct: E. coli BL21 (DE3) were transformed with the full-length expression vector of each isoform; His-tag; made in house; host or cells: E. coli BL21 (DE3)
T2 sequence (P47895 1-512): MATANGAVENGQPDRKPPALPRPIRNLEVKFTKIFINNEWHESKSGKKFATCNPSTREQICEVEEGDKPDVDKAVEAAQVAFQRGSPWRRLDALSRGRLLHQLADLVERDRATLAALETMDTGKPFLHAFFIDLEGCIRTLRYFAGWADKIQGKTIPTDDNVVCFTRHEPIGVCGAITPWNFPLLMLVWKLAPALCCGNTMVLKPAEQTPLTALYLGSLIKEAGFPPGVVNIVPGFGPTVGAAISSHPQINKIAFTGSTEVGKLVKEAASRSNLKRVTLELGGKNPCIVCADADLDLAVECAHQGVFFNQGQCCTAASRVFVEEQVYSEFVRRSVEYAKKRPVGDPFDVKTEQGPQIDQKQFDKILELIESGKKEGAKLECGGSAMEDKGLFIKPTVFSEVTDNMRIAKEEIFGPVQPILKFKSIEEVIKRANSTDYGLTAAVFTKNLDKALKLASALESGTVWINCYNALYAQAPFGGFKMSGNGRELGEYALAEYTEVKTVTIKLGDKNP
Protocol: as §1

[3] = tested on: U87MG glioblastoma cells; assay: Fluorescent microscopy of probe in cells; format: cell-based, human; details: 10 µM; for fluorescence in cells: 2 h
Protocol: In total, 20,000 cells/ml of U87MG, HEK293T, hASTRO and 4T1 were seeded onto glass cover slips in 24-well plates. The cells incubated at 37 °C in a 5% CO2 atmosphere overnight. Cells were washed with 1 ml of PBS buffer two times, then a 10 μM solution of probes was added to each well for 2 h. For nuclei staining, 1 µg/ml of DAPI was added the last 15 min of treatment. The cover slips were removed and washed with PBS buffer, and fixed with 0.5 ml of 4% formaldehyde solution for 10 min. The cover slips were washed with 1 ml of PBS, then slides were prepared using Mounting Media (Merck Life Science). Fluorescence images were acquired using a Leica THUNDER Imager 3D Live Cell (Leica Microsystems, Wetzlar, Germany) microscope equipped with an S Fluor 40×/1.3 objective using the LAS X software.

[4] = tested on: GL261 glioblastoma in left striatum; assay: In vivo labeling of orthotopic GL261 glioblastoma after i.p. injection; set-up: species or system mice; details: 6 days after implantation, 6 h after injection, probe 10 18 μg, probe 11 5 μg
Description: We used in vitro and in vivo cells from a mouse high grade glioma cell line, GL261[56]. Briefly, ten 2- to 3-month-old female C57BlC mice were stereotactically implanted under deep general anesthesia (isoflurane supplemented with nitrous oxide) with 1 × 10^5 GL261 glioblastoma cells. The cells were stereotactically inoculated through a burr hole by a Hamilton syringe into the left striatum (coordinates: 1 mm anteroposterior and 1 mm lateral from bregma, at a depth of 3 mm). All experimental procedures were conducted in accordance with the European Communities Council Directive of the 24th of November 1986 (86/609 EEC), with the Recommendation 18/06/2007, Dir. 2010/63/UE and with the Italian law for care and use of experimental animals (DL116/92) and were approved by the Italian Ministry of Health (prot. E669C.15) and by the Bioethical Committee of the University of Turin. All animals were housed under a 12-h light-dark cycle in an environmentally controlled room. All experiments were designed to minimize the numbers of animals used and their discomfort. In each experiment, animals with tumors were allocated to two groups and i.p. injected with probe 10 (18 μg) or probe 11 (5 μg). […] Quantitative and phenotypic evaluations were made on the images acquired with a Leica TCS SP5 confocal microscope. […]

| Structure (SMILES) | Kd [1] [µM] | Kd [2] [µM] | fluorescence in cells [3] | If ROI ([3]; U87-MG, 2 h (Fig. 5g)) | labelling of the growing tumor in vivo [4] |
| --- | --- | --- | --- | --- | --- |
| COc1cc(/C=C/C(O)=C/C(=O)/C=C/c2ccc(OCc3cn(CCOc4ccc(C=O)cc4)nn3)c(OC)c2)ccc1O [Probe 10] | 31.1 | 38.2 | can determine fluorescence | 238.82 a.u. and 283.69 a.u. and 302.7 a.u. and 195.53 a.u. and 182.63 a.u. | only Probe 10 was able to selectively label the growing tumor |
| CCOC(=O)Cn1cc(COc2ccc(/C=C/C(=O)/C=C(O)/C=C/c3ccc(O)c(OC)c3)cc2OC)nn1 [Probe 11] | 42.4 | 84.3 | fluorescence has been observed using Probe 11 only in U87MG cell lines |  | does not penetrate to any appreciable level the tumor cells in vivo |
